Results as given in US7071163B2, “Compounds for targeting hepatocytes in vivo” (Mirus Bio Corporation, priority 2002, dated 2006).
Peptide text beside a SMILES is read from it. * marks the point of attachment. Biotin = O=C1N[C@H]2[C@H](CS[C@H]2CCCCC(=O)*)N1; PEG4 = NCCOCCOCCOCCOCCC(=O)O

How the values were obtained:
hepatocytes [1] = assay: Delivery of Cy3-streptavidin by biotinylated synthetic p17 peptide, mouse; details: peptide to SA molar ratio of 18:1, 10 min
Procedure: Purified peptide was mixed with 250 μg of Cy3-labled SA (Jackson ImmunoResearch Laboratories, Inc. West Grove, Pa.) at peptide to SA molar ratios of 1.2:1, 9:1, 18:1, 45: 1, and 90:1 in a solution containing 25 mM HEPES, 125 mM NaCl, pH 8. The mixtures were injected into mice via the tail vein (400 μl injection volume). […] All animals were sacrificed 10 min after injection and liver samples were excised and frozen tissue sections prepared and placed onto microscopic slides. Air dried tissue sections were fixed and counterstained with Alexa 488 phalloidin and To-Pro-3 as previously described and analyzed by confocal microcopy.
The ability of biotin-peptide conjugates to target Cy3-labeled streptavidin to hepatocytes in mice is determined by confocal fluorescent microscopy as described above.

hepatocytes [2] = assay: Delivery of Cy3-streptavidin by biotinylated synthetic p17 peptide, monkey; type: in vivo, Cyno monkey; details: b107 says ratio 18:1, method b106 13:1, 10 min
Procedure: A. Delivery of streptavidin (SA) by a biotinylated p17 peptide (MC893). […] Purified peptide was mixed with 250 μg of Cy3-labled SA (Jackson ImmunoResearch Laboratories, Inc. West Grove, Pa.) at peptide to SA molar ratios of 1.2:1, 9:1, 18:1, 45: 1, and 90:1 in a solution containing 25 mM HEPES, 125 mM NaCl, pH 8. The mixtures were injected into mice via the tail vein (400 μl injection volume). For monkey injection, 3.3 mg MC893 peptide was mixed with 3 mg of Cy3-SA, a 13:1 molar ratio, and purified using a G50 column. The sample was recovered in 12 ml 25 mM HEPES, 125 mM NaCl, pH 8 and slowly injected into a Cyno monkey via a subcutaneous vein in the arm. All animals were sacrificed 10 min after injection and liver samples were excised and frozen tissue sections prepared and placed onto microscopic slides. Air dried tissue sections were fixed and counterstained with Alexa 488 phalloidin and To-Pro-3 as previously described and analyzed by confocal microcopy.

mouse hepatocytes = assay: Delivery of biotinylated Cy3-dextran and Cy3-siRNA by MC892-SA conjugate; type: in vivo
Procedure: B. Delivery of biotinylated cargo by SA-p17 peptide conjugates. […] 2 mg SA was dissolved in 200 μl dH2O and added to a 200 μl 100 mM sodium phosphate/300 mM NaCl/2 mM EDTA, pH 7.2. A 10 mole equivalent of SPDP (Pierce) dissolved in DMF at 10 mg/ml was then added to the SA solution and mixed at RT for 1 h. The SPDP-modified streptavidin was then purified using a G-25 Sephadex column. It was determined that each SA molecule contained an average of 1.8 PDP groups based on a pyridine-2-thione assay. The SA-PDP conjugate was added to MC892 at a 1:18 molar ratio and incubated for 24 h at 4° C. The MC892-SA conjugates were purified on a G-25 Sephadex column. The sample was then freeze-dried and dissolved in a solution of 25 mM MES, 125 mM NaCl, pH 6.5 at 3 mg/ml.
One mg of NHS-PEG4-Biotin suspended in dry DMF at 10 mg/ml was added to 30 mg amino dextran (Molecular Probes, 70 kDa, 17.9 mole amine per polymer) that was dissolved in 0.1 M NaHCO3 at 10 mg/ml (molar ratio of 4.5 to 1). This solution was mixed overnight at room temperature, transferred into cellulose tubing (Fisher, 12–14,000 MWCO) and dialyzed once against 20 L 20 mM NH4Cl followed twice against 5 L dH20. The dialyzed sample was lyophilized. The sample was then dissolved in dH2O at 30 mg/ml. Each dextran polymer was estimated to contain an average of 0.5 biotin group. This biotinylated dextran was fluorescently labeled with Cy3-OSu (Amersham) at a weight ratio of 1:0.074. Excess free dye was removed using a Sephadex G-50 column. Labeled dextran was eluted in 25 mM NH4CO3. The sample was freeze dried and resuspended at 7.5 mg/ml in 25 mM HEPES/125 mM NaCl, pH 8.0. Biotinylated siRNA (5′-biotin-LC-siRNA, Dharmacon) was labeled with Cy3 using Cy3 LabelIT (Mirus Corp) according to manufacturer's instructions. […]
Liver samples were removed 10 min after injection, placed into OCT freezing medium and snap frozen in liquid nitrogen. […] Processed slides were mounted in Vectorshield (Vector Laboratories, Burlingame, Calif.) and analyzed using a Zeiss LSM510 confocal microscope.

monkey hepatocytes = assay: Targeting of recombinant p17 proteins to monkey hepatocytes; type: in vivo; details: 500 μg via subcutaneous vein in arm, 1 h
Procedure: 6. Targeting of recombinant p17 proteins to monkey hepatocytes. Recombinant full-length p17 proteins were prepared as previously described. Purified p17 proteins, 500 μg of p17-K211 or p17-E211 in 33 ml of PBS, were slowly injected into monkeys via subcutaneous vein in arm. Liver samples were excised 1 h after injection, submerged in O.C.T. freezing medium and snap frozen in liquid nitrogen. Frozen liver sections (5–7 μm) were prepared using a cryostat and air-dried. Immunofluorescence detection for p17 proteins was performed as described above. Liver sections from an uninjected monkey were used as a control. Images represent an area of 75 μm^2 from a flattened composite of 8 consecutive confocal optical sections (each 0.4 μm thick). P17 is seen in black, cell nuclei in gray, F-actin in gray near basolateral membranes and in near bile capillary membranes.

C[C@H](NC(=O)[C@H](CCC(=O)O)NC(=O)[C@H](CC(=O)O)NC(=O)[C@H](CCCNC(=N)N)NC(=O)[C@H](Cc1ccccc1)NC(=O)CNC(=O)[C@H](CCCCN)NC(=O)[C@@H](NC(=O)[C@H](CCC(=O)O)NC(=O)[C@H](CC(=O)O)NC(=O)[C@H](CCCNC(=N)N)NC(=O)[C@H](Cc1c[nH]c2ccccc12)NC(=O)[C@H](CCC(N)=O)NC(=O)[C@H](CCCCN)NC(=O)[C@@H](NC(=O)[C@H](CC(N)=O)NC(=O)[C@@H](NC(=O)[C@H](C)NC(=O)[C@H](CC(N)=O)NC(=O)[C@@H](NC(=O)[C@H](CO)NC(=O)[C@H](CO)NC(=O)[C@H](CCC(=O)O)NC(=O)[C@H](CC(N)=O)NC(=O)[C@H](CCCCN)NC(=O)CCOCCOCCOCCOCCNC(=O)CCOCCOCCOCCOCCNC(=O)CCCC[C@@H]1SC[C@@H]2NC(=O)N[C@@H]21)[C@@H](C)O)[C@@H](C)O)[C@@H](C)O)[C@@H](C)O)C(=O)N[C@@H](CCCCN)C(=O)N[C@@H](CCCNC(=N)N)C(=O)N[C@@H](Cc1ccccc1)C(=O)N[C@@H](CCCCN)C(=O)N[C@@H](CC(N)=O)C(=O)N[C@H](C(=O)N[C@@H](C)C(=O)NCC(=O)O)[C@@H](C)O [MC893] ({Biotin-PEG4-PEG4}-KNESSTNATNTKQWRDETKGFRDEAKRFKNTAG-OH)
targeting of Cy3-SA to hepatocytes (hepatocytes [1]): efficiently targeted Cy3-SA to hepatocytes
targeting of Cy3-SA to hepatocytes (hepatocytes [2]): efficiently targeted Cy3-SA to hepatocytes

Cys-PEG4-Lys-Asn-Glu-Ser-Ser-Thr-Asn-Ala-Thr-Asn-Thr-Lys-Gln-Trp-Arg-Asp-Glu-Thr-Lys-Gly-Phe-Arg-Asp-Glu-Ala-Lys211-Arg-Phe-Lys-Asn-Thr-Ala-Gly [MC892]
Cy3-dextran signal in hepatocytes (mouse hepatocytes; MC892-SA with biotinylated Cy3-dextran, 20 min (not shown)): internalized Cy3-dextran signals found in clusters near cell nuclei
Cy3-dextran signal in hepatocytes (mouse hepatocytes; MC892-SA with biotinylated Cy3-labeled 70 kDa dextran, 10 min after injection): high levels of Cy3-dextran signal was observed inside hepatocytes
targeting of Cy3-siRNA to liver (mouse hepatocytes; MC892-SA with biotinylated Cy3-siRNA, 10 min): successful targeting of siRNA to the liver

B1: p17-K211: bacterially expressed His-tagged full-length wild-type T7 p17 tail fiber protein (SEQ ID 4) (protein)
chain: MGSSHHHHHHSSGLVPRGSHMANVIKTVLTYQLDGSNRDFNIPFEYLARKFVVVTLIGVDRKVLTINTDYRFATRTTISLTKAWGPADGYTTIELRRVTSTTDRLVDFTDGSILRAYDLNVAQIQTMHVAEEARDLTTDTIGVNNDGHLDARGRRIVNLANAVDDRDAVPFGQLKTMNQNSWQARNEALQFRNEAETFRNQAEGFKNESSTNATNTKQWRDETKGFRDEAKRFKNTAGQYATSAGNSASAAHQSEVNAENSATASANSAHLAEQQADRAEREADKLENYNGLAGAIDKVDGTNVYWKGNIHANGRLYMTTNGFDCGQYQQFFGGVTNRYSVMEWGDENGWLMYVQRREWTTAIGGNIQLVVNGQIITQGGAMTGQLKLQNGHVLQLESASDKAHYILSKDGNRNNWYIGRGSDNNNDCTFHSYVHGTTLTLKQDYAVVNKHFHVGQAVVATDGNIQGTKWGGKWLDAYLRDSFVAKSKAWTQVWSGSAGGGVSVTVSQDLRFRNIWIKCANNSWNFFRTGPDGIYFIASDGGWLRFQIHSNGLGFKNIADSRSVPNAIMVENE
modifications: His tag; Bacteriophage T7
liver localization of p17 protein in monkey (monkey hepatocytes): efficiently targets to monkey hepatocytes
